Results from ChEMBL document CHEMBL6121052, “Design of ROS-Triggered Sesquiterpene Lactone SC Prodrugs as TrxR1 Covalent Inhibitors for the Treatment of Non-Small Cell Lung Cancer” (J Med Chem, 2025).
pIC50: −log10 of the molar value. Active and inactive are the calls of the source. No cut-off for these calls is given here.

Legend:
[1] = system: A549; assay: Cytotoxicity against human A549 cells assessed as cell viability incubated for 48 hrs by MTT assay; format: functional, cell-based; details: A549, 48 h
[2] = system: NCI-H460; assay: Cytotoxicity against human NCI-H460 cells assessed as cell viability incubated for 48 hrs by MTT assay; format: functional, cell-based; details: for pIC50: NCI-H460, 48 h

Structure (SMILES)	pIC50 [1]	pIC50 [2]	Activity [2]
C/C1=C\[C@@H](OC(=O)/C=C/c2ccccc2)[C@H]2[C@H](CC3=C[C@H](C1)OC3=O)OC(=O)[C@@H]2CSc1ccc(Cl)cc1	5.12	< 4.60	
COc1ccc(SC[C@H]2C(=O)O[C@H]3CC4=C[C@H](C/C(C)=C/[C@@H](OC(=O)/C=C/c5ccccc5)[C@@H]32)OC4=O)cc1	4.85	< 4.60	
C/C1=C\[C@@H](OC(=O)c2ccccc2)[C@H]2[C@H](CC3=C[C@H](C1)OC3=O)OC(=O)[C@@H]2CSc1nc2ccccc2s1	< 4.60	< 4.60	
C/C1=C\[C@@H](O)[C@H]2[C@H](CC3=C[C@H](C1)OC3=O)OC(=O)[C@@H]2CSC1CCCCC1	< 4.60	< 4.60	
C/C1=C\[C@@H](O)[C@H]2[C@H](CC3=C[C@H](C1)OC3=O)OC(=O)[C@@H]2CSc1cccc(F)c1	< 4.60	< 4.60	
C/C1=C\[C@@H](OC(=O)OCc2cccs2)[C@H]2[C@H](CC3=C[C@H](C1)OC3=O)OC(=O)[C@@H]2CSc1ccc(F)cc1	4.65		
C/C1=C\[C@@H](OC(=O)/C=C/c2ccccc2)[C@H]2[C@H](CC3=C[C@H](C1)OC3=O)OC(=O)[C@@H]2CSCC(C)C	< 4.60	< 4.60	
C/C1=C\[C@@H](OC(=O)/C=C/c2ccccc2)[C@H]2[C@H](CC3=C[C@H](C1)OC3=O)OC(=O)[C@@H]2CSCCCCCCSC[C@H]1C(=O)O[C@H]2CC3=C[C@H](C/C(C)=C/[C@@H](OC(=O)/C=C/c4ccccc4)[C@@H]21)OC3=O	< 4.60	< 4.60	
C/C1=C\[C@@H](OC(=O)SC2CCCCC2)[C@H]2[C@H](CC3=C[C@H](C1)OC3=O)OC(=O)[C@@H]2CSC(=S)N(C)C	5.70		
CCCNC(=S)SC[C@H]1C(=O)O[C@H]2CC3=C[C@H](C/C(C)=C/[C@@H](OC(=O)C4CC4)[C@@H]21)OC3=O	5.55	4.60	
C/C1=C\[C@@H](OC(=O)c2ccccc2)[C@H]2[C@H](CC3=C[C@H](C1)OC3=O)OC(=O)[C@@H]2CSC1CCCCC1	< 4.60	< 4.60	
C/C1=C\[C@@H](OC(=O)c2ccccc2)[C@H]2[C@H](CC3=C[C@H](C1)OC3=O)OC(=O)[C@@H]2CSc1ccc(Cl)cc1	5.38	4.69	
C/C1=C\[C@@H](O)[C@H]2[C@H](CC3=C[C@H](C1)OC3=O)OC(=O)[C@@H]2CSc1ccc(F)cc1	< 4.60	< 4.60	
C/C1=C\[C@@H](OC(=O)C2CC2)[C@H]2[C@H](CC3=C[C@H](C1)OC3=O)OC(=O)[C@@H]2CSC(=S)NCc1ccc(F)cc1	5.75	4.82	
C/C1=C\[C@@H](O)[C@H]2[C@H](CC3=C[C@H](C1)OC3=O)OC(=O)[C@@H]2CSCCCCCCCCCCSC[C@H]1C(=O)O[C@H]2CC3=C[C@H](C/C(C)=C/[C@@H](O)[C@@H]21)OC3=O	< 4.60	< 4.60	
C/C1=C\[C@@H](OC(=O)C2CC2)[C@H]2[C@H](CC3=C[C@H](C1)OC3=O)OC(=O)[C@@H]2CSCC(C)C	< 4.60	< 4.60	
C#CCNC(=O)O[C@@H]1/C=C(\C)C[C@H]2C=C(C[C@@H]3OC(=O)[C@H](CSc4ccc(F)cc4)[C@H]31)C(=O)O2	4.66		
C/C1=C\[C@@H](OC(=O)NC2CC2)[C@H]2[C@H](CC3=C[C@H](C1)OC3=O)OC(=O)[C@@H]2CSc1ccc(F)cc1	4.80		
C/C1=C\[C@@H](OC(=O)/C=C/c2ccccc2)[C@H]2[C@H](CC3=C[C@H](C1)OC3=O)OC(=O)[C@@H]2CSCCOCCOCCSC[C@H]1C(=O)O[C@H]2CC3=C[C@H](C/C(C)=C/[C@@H](OC(=O)/C=C/c4ccccc4)[C@@H]21)OC3=O	< 4.60	< 4.60	
C/C1=C\[C@@H](OC(=O)/C=C/c2ccccc2)[C@H]2[C@H](CC3=C[C@H](C1)OC3=O)OC(=O)[C@@H]2CSc1cccc(Br)c1	5.06	< 4.60	
C/C1=C\[C@@H](OC(=O)c2ccccc2)[C@H]2[C@H](CC3=C[C@H](C1)OC3=O)OC(=O)[C@@H]2CSc1ccc(SC[C@H]2C(=O)O[C@H]3CC4=C[C@H](C/C(C)=C/[C@@H](OC(=O)c5ccccc5)[C@@H]32)OC4=O)cc1	< 4.60	< 4.60	
C/C1=C\[C@@H](OC(=O)C2CC2)[C@H]2[C@H](CC3=C[C@H](C1)OC3=O)OC(=O)[C@@H]2CSCCCCCCCCCCSC[C@H]1C(=O)O[C@H]2CC3=C[C@H](C/C(C)=C/[C@@H](OC(=O)C4CC4)[C@@H]21)OC3=O	< 4.60	< 4.60	
C/C1=C\[C@@H](O)[C@H]2[C@H](CC3=C[C@H](C1)OC3=O)OC(=O)[C@@H]2CSc1ccc(SC[C@H]2C(=O)O[C@H]3CC4=C[C@H](C/C(C)=C/[C@@H](O)[C@@H]32)OC4=O)cc1	< 4.60	< 4.60	
C/C1=C\[C@@H](OC(=O)c2ccccc2)[C@H]2[C@H](CC3=C[C@H](C1)OC3=O)OC(=O)[C@@H]2CSc1ccc(F)cc1	5.14	< 4.60	
C/C1=C\[C@@H](OC(=O)/C=C/c2ccccc2)[C@H]2[C@H](CC3=C[C@H](C1)OC3=O)OC(=O)[C@@H]2CSc1ccc(F)cc1	4.95	< 4.60	

Structure (SMILES)	pIC50 [1]	pIC50 [2]	Activity [2]
C/C1=C\[C@@H](O)[C@H]2[C@H](CC3=C[C@H](C1)OC3=O)OC(=O)[C@@H]2CSCc1ccc(Cl)cc1	< 4.60	< 4.60	
C/C1=C\[C@@H](OC(=O)C2CC2)[C@H]2[C@H](CC3=C[C@H](C1)OC3=O)OC(=O)[C@@H]2CSC(=S)N1CCOCC1	6.08	< 4.60	
C/C1=C\[C@@H](OC(=O)C2CC2)[C@H]2[C@H](CC3=C[C@H](C1)OC3=O)OC(=O)[C@@H]2CSc1nc2ccccc2s1	4.76	< 4.60	
C/C1=C\[C@@H](OC(=O)C2CC2)[C@H]2[C@H](CC3=C[C@H](C1)OC3=O)OC(=O)[C@@H]2CSCCOCCOCCSC[C@H]1C(=O)O[C@H]2CC3=C[C@H](C/C(C)=C/[C@@H](OC(=O)C4CC4)[C@@H]21)OC3=O	4.88	< 4.60	
C/C1=C\[C@@H](O)[C@H]2[C@H](CC3=C[C@H](C1)OC3=O)OC(=O)[C@@H]2CSCCOCCOCCSC[C@H]1C(=O)O[C@H]2CC3=C[C@H](C/C(C)=C/[C@@H](O)[C@@H]21)OC3=O	< 4.60	< 4.60	
CCCCCSC(=O)O[C@@H]1/C=C(\C)C[C@H]2C=C(C[C@@H]3OC(=O)[C@H](CSc4ccc(F)cc4)[C@H]31)C(=O)O2	4.97		
C/C1=C\[C@@H](OC(=O)/C=C/c2ccccc2)[C@H]2[C@H](CC3=C[C@H](C1)OC3=O)OC(=O)[C@@H]2CSCCCCCCCCSC[C@H]1C(=O)O[C@H]2CC3=C[C@H](C/C(C)=C/[C@@H](OC(=O)/C=C/c4ccccc4)[C@@H]21)OC3=O	< 4.60	< 4.60	
C/C1=C\[C@@H](OC(=O)c2ccccc2)[C@H]2[C@H](CC3=C[C@H](C1)OC3=O)OC(=O)[C@@H]2CSc1ccc(C(F)(F)F)cc1	5.43	4.61	
C/C1=C\[C@@H](OC(=O)C2CC2)[C@H]2[C@H](CC3=C[C@H](C1)OC3=O)OC(=O)[C@@H]2CSC(=S)NC(C)C	5.71	< 4.60	
C/C1=C\[C@@H](OC(=O)/C=C/c2ccccc2)[C@H]2[C@H](CC3=C[C@H](C1)OC3=O)OC(=O)[C@@H]2CSc1nc2ccccc2s1	< 4.60	< 4.60	
C/C1=C\[C@@H](O)[C@H]2[C@H](CC3=C[C@H](C1)OC3=O)OC(=O)[C@@H]2CSc1cccc(Br)c1	< 4.60	< 4.60	
C/C1=C\[C@@H](OC(=O)OCc2ccc(F)cc2)[C@H]2[C@H](CC3=C[C@H](C1)OC3=O)OC(=O)[C@@H]2CSc1ccc(F)cc1	5.14		
C[C@@]12C[C@H]3C=C(C[C@@H]4OC(=O)[C@H](CSc5ccc(F)cc5)[C@H]4[C@H](OC(=O)C4CC4)[C@H]1O2)C(=O)O3			inactive
C/C1=C\[C@@H](OC(=O)OC2CC2)[C@H]2[C@H](CC3=C[C@H](C1)OC3=O)OC(=O)[C@@H]2CSC(=S)N(C)C	5.89		
C/C1=C\[C@@H](OC(=O)NCc2cccs2)[C@H]2[C@H](CC3=C[C@H](C1)OC3=O)OC(=O)[C@@H]2CSC(=S)N(C)C	5.55		
CCCNC(=O)O[C@@H]1/C=C(\C)C[C@H]2C=C(C[C@@H]3OC(=O)[C@H](CSc4ccc(F)cc4)[C@H]31)C(=O)O2	4.98		
C/C1=C\[C@@H](OC(=O)NCc2cccs2)[C@H]2[C@H](CC3=C[C@H](C1)OC3=O)OC(=O)[C@@H]2CSc1ccc(F)cc1	5.26		
C/C1=C\[C@@H](OC(=O)N2CCCC2)[C@H]2[C@H](CC3=C[C@H](C1)OC3=O)OC(=O)[C@@H]2CSc1ccc(F)cc1	5.12		
C/C1=C\[C@@H](OC(=O)SC2CCCCC2)[C@H]2[C@H](CC3=C[C@H](C1)OC3=O)OC(=O)[C@@H]2CSc1ccc(F)cc1	5.40		
C/C1=C\[C@@H](OC(=O)SCC(C)C)[C@H]2[C@H](CC3=C[C@H](C1)OC3=O)OC(=O)[C@@H]2CSC(=S)N(C)C	5.86		
C#CCNC(=O)O[C@@H]1/C=C(\C)C[C@H]2C=C(C[C@@H]3OC(=O)[C@H](CSC(=S)N(C)C)[C@H]31)C(=O)O2	5.75		
C/C1=C\[C@@H](OC(=O)OCc2cccs2)[C@H]2[C@H](CC3=C[C@H](C1)OC3=O)OC(=O)[C@@H]2CSC(=S)N(C)C	5.59		
C/C1=C\[C@@H](OC(=O)NCc2cccnc2)[C@H]2[C@H](CC3=C[C@H](C1)OC3=O)OC(=O)[C@@H]2CSc1ccc(F)cc1	4.71		
C/C1=C\[C@@H](OC(=O)NC2CC2)[C@H]2[C@H](CC3=C[C@H](C1)OC3=O)OC(=O)[C@@H]2CSC(=S)N(C)C	5.68		
